Results as given in patent publication US12459951B2, “Compounds that interact with RAS superfamily proteins for treatment of cancers, inflammatory diseases, rasopathies, and fibrotic disease” (SHY Therapeutics, LLC, priority 2022, dated 2025).

Tested on: Erk1/2 phosphorylation
Assay: Erk1/2 Phosphorylation Assay (western blot), Panc-1
Type: cell-based, human
Conditions: at 10 μM, * = activation
Protocol: Protocol for Western Erk1/2 Cell-Based Phosphorylation Assay
This assay is referred to as the “Erk1/2 Phosphorylation Assay” throughout this application.
Cell lines: Human tumor-derived pancreatic cancer cell line Panc-1 (expressing KRas G12D mutant) was purchased from American Type Culture Collection and grown in complete DMEM-High Glucose medium, supplemented with penicillin (100 U/mL), streptomycin (100 μg/mL), and 10% heat-inactivated FBS at 37° C. in a humidified incubator with 5% CO2.
Method 1: Cells were plated at 350000 cells/well density in a 12-well plate, allowed 3 hours to adhere to the plate, then starved in the appropriate medium in the presence of 0.5% FBS overnight. The small molecules to be tested were added to the cells in the final concentration of 10 μM in the presence of 0.3% DMSO for 6 hours incubation at 37° C. For IC50 value determination, serial dilutions of compounds were added to cells under the same conditions. Next, cells were stimulated with 1.5 ng/ml EGF for 15 minutes then cells were lysed with lysis buffer containing 1% Triton X-100, EDTA, and Halt™ Protease & Phosphatase Inhibitor Cocktail (Thermo Scientific). Protein concentration was assessed by BCA protein assay (Thermo Scientific). Phosphorylation level of Erk1/2 was determined by western blot.
Method 2: Cells were plated at 350000 cells/well density in a 12-well plate in 10% FBS. The next day small molecules to be tested were added to the cells in the final concentration of 10 μM in the presence of 0.3% DMSO for 6 hours incubation at 37° C. For IC50 value determination, serial dilutions of compounds were added to cells under the same conditions. Next, cells were lysed with lysis buffer containing 1% Triton X-100, EDTA, and Halt™ Protease & Phosphatase Inhibitor Cocktail (Thermo Scientific). Protein concentration was assessed by BCA protein assay (Thermo Scientific). Phosphorylation level of Erk1/2 was determined by western blot.
Western blot protocol: Equal amounts of protein (15-50 μg) were separated by SDS-PAGE and transferred to nitrocellulose membranes (Invitrogen by Thermo Fisher Scientific). The membrane was stained with Ponceau S Stain (Boston BioProducts) to verify uniform protein loading. Membranes were blocked with 10% milk and phosphorylation levels of Erk1/2 were assessed by incubating overnight at 4° C. with anti-phospho-p44/42 (Thr202/Tyr204) antibody (Cell Signaling) followed by HRP-conjugated secondary antibody (Jackson Immunoresearch, West Grove, PA). Bands were incubated in Amersham ECL Prime Western Blotting Detection Reagent (GE Healthcare) and visualized using the ChemiDoc MP imaging system (Bio-Rad).

CO[C@H]1CC[C@@H](Nc2nc(-c3ccccn3)nn3cc(-c4ccn(C(C)C)n4)c(C)c23)C1 (racemic) [Compound 9, rac 6-(1-Isopropyl-1H-pyrazol-3-yl)-N-((1R,3S)-3-methoxycyclopentyl)-5-methyl-2-(pyridin-2-yl)pyrrolo[2,1-f][1,2,4]triazin-4-amine]
% inh of Erk1/2 phosphorylation in Panc-1: 0 (0% inhibition)

CO[C@H]1C[C@@H](Nc2nc(-c3nccn3C)nn3cc(-c4cccnc4)c(C)c23)C1 [Compound 153, N-((1s,3s)-3-methoxy-cyclobutyl)-5-methyl-2-(1-methyl-1H-imidazol-2-yl)-6-(pyridin-3-yl)pyrrolo[2,1-f][1,2,4]triazin-4-amine]
% inh of Erk1/2 phosphorylation in Panc-1: A (1-25% inhibition)

CO[C@H]1C[C@H](Nc2nc(-c3nccn3C)nn3cc(-c4cccnc4)c(-c4ccccn4)c23)C1 [Compound 168, N-((1r,3r)-3-Methoxycyclobutyl)-2-(1-methyl-1H-imidazol-2-yl)-5-(pyridin-2-yl)-6-(pyridin-3-yl)pyrrolo[2,1-f][1,2,4]triazin-4-amine]
% inh of Erk1/2 phosphorylation in Panc-1: 0 (0% inhibition)

COc1cc(Nc2nc(-c3nccn3C)nn3cc(-c4ccn(C5CC5)n4)c(C)c23)ncn1 [Compound 135, 6-(1-Cyclopropyl-1H-pyrazol-3-yl)-N-(6-methoxypyrimidin-4-yl)-5-methyl-2-(1-methyl-1H-imidazol-2-yl)pyrrolo[2,1-f][1,2,4]triazin-4-amine]
% inh of Erk1/2 phosphorylation in Panc-1: D* (85-100% activation)

Cc1c(-c2ccn(C3CC3)n2)cn2nc(-c3nccn3C)nc(Nc3cc(OCCCO)ccn3)c12 [Compound 149, 3-((2-((6-(1-Cyclopropyl-1H-pyrazol-3-yl)-5-methyl-2-(1-methyl-1H-imidazol-2-yl)pyrrolo[2,1-f][1,2,4]triazin-4-yl)amino)pyridin-4-yl)oxy)propan-1-ol]
% inh of Erk1/2 phosphorylation in Panc-1: D* (85-100% activation)

Cc1c(-c2ccn(C)n2)cn2nc(-c3nccn3C)nc(Cl)c12 [Compound 99, 4-Chloro-5-methyl-2-(1-methyl-1H-imidazol-2-yl)-6-(1-methyl-1H-pyrazol-3-yl)pyrrolo[2,1-f][1,2,4]triazine]
% inh of Erk1/2 phosphorylation in Panc-1: D* (85-100% activation)

Cc1c(-c2ccn(C)n2)cn2nc(-c3nccn3C)nc(Nc3ncccn3)c12.Cl [Compound 115, 5-Methyl-2-(1-methyl-1H-imidazol-2-yl)-6-(1-methyl-1H-pyrazol-3-yl)-N-(pyrimidin-2-yl)pyrrolo[2,1-f][1,2,4]triazin-4-amine hydrochloride salt]
% inh of Erk1/2 phosphorylation in Panc-1: C (50-84% inhibition)

Cc1c(-c2ccn(C(C)C)n2)cn2nc(-c3nccn3C)nc(Nc3ncc[nH]3)c12 [Compound 125, N-(1H-Imidazol-2-yl)-6-(1-isopropyl-1H-pyrazol-3-yl)-5-methyl-2-(1-methyl-1H-imidazol-2-yl)pyrrolo[2,1-f][1,2,4]triazin-4-amine]
% inh of Erk1/2 phosphorylation in Panc-1: A (1-25% inhibition)

COc1cc(-c2cn3nc(-c4nccn4C)nc(N[C@@H]4CC[C@@H](OC)C4)c3c2C)ccn1 (racemic) [Compound 163, rac N-((1R,3R)-3-Methoxycyclopentyl)-6-(2-methoxypyridin-4-yl)-5-methyl-2-(1-methyl-1H-imidazol-2-yl)pyrrolo[2,1-f][1,2,4]triazin-4-amine]
% inh of Erk1/2 phosphorylation in Panc-1: A* (1-25% activation)

COc1cc(Nc2nc(-c3nccn3C)nn3cc(-c4cccnc4)c(-c4ccccn4)c23)ncn1 [Compound 167, N-(6-Methoxypyrimidin-4-yl)-2-(1-methyl-1H-imidazol-2-yl)-5-(pyridin-2-yl)-6-(pyridin-3-yl)pyrrolo[2,1-f][1,2,4]triazin-4-amine]
% inh of Erk1/2 phosphorylation in Panc-1: A (1-25% inhibition)

COc1cnc(Nc2nc(-c3nccn3C)nn3cc(-c4ccn(C)n4)c(C)c23)cn1 [Compound 110, N-(5-Methoxypyrazin-2-yl)-5-methyl-2-(1-methyl-1H-imidazol-2-yl)-6-(1-methyl-1H-pyrazol-3-yl)pyrrolo[2,1-f][1,2,4]triazin-4-amine]
% inh of Erk1/2 phosphorylation in Panc-1: B* (26-49% activation)

CO[C@H]1CC[C@@H](Nc2nc(-c3nccn3C)nn3cc(-c4cccnc4)c(C)c23)C1 (racemic) [Compound 155, rac N-((1R,3S)-3-methoxy-cyclopentyl)-5-methyl-2-(1-methyl-1H-imidazol-2-yl)-6-(pyridin-3-yl)pyrrolo[2,1-f][1,2,4]triazin-4-amine]
% inh of Erk1/2 phosphorylation in Panc-1: A* (1-25% activation)

Cc1c(-c2ccn(C)n2)cn2nc(-c3nccn3C)nc(Nc3ccn(C4CC4)n3)c12 [Compound 111, N-(1-Cyclopropyl-1H-pyrazol-3-yl)-5-methyl-2-(1-methyl-1H-imidazol-2-yl)-6-(1-methyl-1H-pyrazol-3-yl)pyrrolo[2,1-f][1,2,4]triazin-4-amine]
% inh of Erk1/2 phosphorylation in Panc-1: A* (1-25% activation)

Cc1c(-c2ccn(C)n2)cn2nc(-c3nccn3C)nc(Nc3cn(C(C)C)nn3)c12 [Compound 109, N-(1-Isopropyl-1H-1,2,3-triazol-4-yl)-5-methyl-2-(1-methyl-1H-imidazol-2-yl)-6-(1-methyl-1H-pyrazol-3-yl)pyrrolo[2,1-f][1,2,4]triazin-4-amine]
% inh of Erk1/2 phosphorylation in Panc-1: B* (26-49% activation)

CO[C@@H]1CC[C@@H](Nc2nc(-c3nccn3C)nn3cc(-c4ccn(C)n4)c(C)c23)C1 (racemic) [Compound 132, rac N-((1R,3R)-3-Methoxycyclopentyl)-5-methyl-2-(1-methyl-1H-imidazol-2-yl)-6-(1-methyl-1H-pyrazol-3-yl)pyrrolo[2,1-f][1,2,4]triazin-4-amine]
% inh of Erk1/2 phosphorylation in Panc-1: 0 (0% inhibition)

COCCO[C@H]1C[C@H](Nc2nc(-c3nccn3C)nn3cc(-c4cccnc4)c(C)c23)C1 [Compound 152, N-((1r,3r)-3-(2-methoxyethoxy)cyclo-butyl)-5-methyl-2-(1-methyl-1H-imidazol-2-yl)-6-(pyridin-3-yl)pyrrolo[2,1-f][1,2,4]triazin-4-amine]
% inh of Erk1/2 phosphorylation in Panc-1: B* (26-49% activation)

CO[C@H]1C[C@H](Nc2nc(-c3nccn3C)nn3cc(-c4cccnc4)c(C)c23)C1 [Compound 151, N-((1r,3r)-3-Methoxycyclobutyl)-5-methyl-2-(1-methyl-1H-imidazol-2-yl)-6-(pyridin-3-yl)pyrrolo[2,1-f][1,2,4]triazin-4-amine]
% inh of Erk1/2 phosphorylation in Panc-1: D* (85-100% activation)

CO[C@H]1CC[C@@H](Nc2nc(-c3nccn3C)nn3cc(-c4ccn(C)n4)c(C)c23)C1 (racemic) [Compound 133, rac N-((1R,3S)-3-Methoxycyclopentyl)-5-methyl-2-(1-methyl-1H-imidazol-2-yl)-6-(1-methyl-1H-pyrazol-3-yl)pyrrolo[2,1-f][1,2,4]triazin-4-amine]
% inh of Erk1/2 phosphorylation in Panc-1: A (1-25% inhibition)

Cc1c(-c2ccn(C3CC3)n2)cn2nc(-c3nccn3C)nc(Nc3cc(OC(F)(F)F)ccn3)c12 [Compound 138, 6-(1-Cyclopropyl-1H-pyrazol-3-yl)-5-methyl-2-(1-methyl-1H-imidazol-2-yl)-N-(4-(trifluoromethoxy)pyridin-2-yl)pyrrolo[2,1-f][1,2,4]triazin-4-amine]
% inh of Erk1/2 phosphorylation in Panc-1: D* (85-100% activation)
